The target of one test is T1, BTK (Homo sapiens, UniProt Q06187).
T1 construct: purchased Upstate 14-552
The test can be described thus: In Vitro BTK Kinase Assay: Btk-PolyGAT-LS Assay. Format: biochemical. The settings on record: active BTK enzyme 0.25 nM, polyGAT 100 nM, 30 minutes, TRF readout; read-out: In Vitro BTK Kinase Assay IC50 Score. The essentials: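 IC50 values came from a four-parameter fit, with DMSO controls as 100% activity and EDTA controls as 0%. The signal was TR-FRET from a Tb-PY20 antibody binding fluorescein-polyGAT (100 nM) phosphorylated by 0.25 nM BTK. Kinase reactions used 10 μM ATP, a 4-fold compound titration, and ran 30 minutes before EDTA stop.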

The test system of test [1] is CD69 expression on CD19+ B cells in human whole blood. Nature of the test: In Vitro whole blood CD69 Assay. It is filed as cell-based. The settings on record: B-cell, read-out: In Vitro HWB CD69 Assay IC50 Score. The essentials:
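Heparinized healthy-donor human whole blood was preincubated with compound (0.1% DMSO) for 30 min at 37 °C. Stimulation used 0.1 µg/mL anti-IgD-dextran or 20 µg/mL rabbit F(ab′)2 anti-IgD for 18–22 h at 37 °C. CD69 on gated CD19+ B cells was then measured by flow cytometry.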

[2] abbreviates: human heparinized whole blood, anti-human IgD stimulation overnight, CD19+ B cells, flow cytometry.

Our source for the IC50 values is patent US20250034150A1, “BTK INHIBITORS” (BIOGEN MA INC., priority 2021, published 2025).

Each structure is given as a SMILES string. Read-outs that look alike come from different tables or passages of the source. Some results are limits rather than exact numbers.

T1 sequence (Q06187 whole entry): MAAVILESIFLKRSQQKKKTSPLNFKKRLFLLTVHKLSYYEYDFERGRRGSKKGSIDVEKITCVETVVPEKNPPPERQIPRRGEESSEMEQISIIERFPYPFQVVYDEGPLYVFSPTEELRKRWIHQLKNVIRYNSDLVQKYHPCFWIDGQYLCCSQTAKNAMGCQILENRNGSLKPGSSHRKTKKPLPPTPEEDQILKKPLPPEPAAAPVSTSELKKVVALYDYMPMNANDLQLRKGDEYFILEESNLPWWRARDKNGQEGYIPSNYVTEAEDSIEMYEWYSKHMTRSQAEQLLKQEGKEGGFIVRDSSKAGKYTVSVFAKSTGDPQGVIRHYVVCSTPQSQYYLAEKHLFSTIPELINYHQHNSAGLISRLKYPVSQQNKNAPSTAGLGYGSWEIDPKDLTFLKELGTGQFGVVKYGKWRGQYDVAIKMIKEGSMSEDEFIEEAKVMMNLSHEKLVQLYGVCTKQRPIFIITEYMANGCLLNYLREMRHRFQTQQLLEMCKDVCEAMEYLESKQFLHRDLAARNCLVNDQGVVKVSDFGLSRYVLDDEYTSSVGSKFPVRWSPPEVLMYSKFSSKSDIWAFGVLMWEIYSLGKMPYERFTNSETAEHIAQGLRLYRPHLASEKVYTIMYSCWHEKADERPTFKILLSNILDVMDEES

On to `Cn1cc(-c2cc3nccn3c(-c3ccc(CNC(=O)c4nc(C5(CF)CC5)no4)cc3)n2)cn1` [Example 63, 3-(1-(fluoromethyl)cyclopropyl)-N-(4-(7-(1-methyl-1H-pyrazol-4-yl)imidazo[1,2-c]pyrimidin-5-yl)benzyl)-1,2,4-oxadiazole-5-carboxamide], for which the results for the half-inhibitory concentration (IC50) (on BTK; in test [1] (Homo sapiens)) were 1 to 10 nM and 1000 to 10000 nM, respectively.
As for `Cc1c(CNC(=O)c2noc(C(C)(C)C)n2)ccc(-c2nc(-c3cnn(C)c3)cc3nccn23)c1F` [Example 79, 5-(tert-butyl)-N-(3-fluoro-2-methyl-4-(7-(1-methyl-1H-pyrazol-4-yl)imidazo[1,2-c]pyrimidin-5-yl)benzyl)-1,2,4-oxadiazole-3-carboxamide], the results for the IC50 (on BTK; in test [1] (setting [2])) were under 1 nM and under 1000 nM, respectively.
The like results for `Cn1cc(-c2cn3nccc3c(N3CCC(CNC(=O)c4noc(C5(C)CC5)n4)CC3)n2)cn1` [Example 137, N-((1-(6-(1-methyl-1H-pyrazol-4-yl)pyrazolo[1,5-a]pyrazin-4-yl)piperidin-4-yl)methyl)-5-(1-methylcyclopropyl)-1,2,4-oxadiazole-3-carboxamide] were, in that order, 1 to 10 nM and 1000 to 10000 nM.
The like results for `Cn1cc(-c2cn3nccc3c(-c3ccc(CNC(=O)c4nnc(C(C)(C)C)o4)c(C(F)F)c3)n2)cn1` [Example 102, 5-(tert-butyl)-N-(2-(difluoromethyl)-4-(6-(1-methyl-1H-pyrazol-4-yl)pyrazolo[1,5-a]pyrazin-4-yl)benzyl)-1,3,4-oxadiazole-2-carboxamide] were, in that order, under 1 nM and under 1000 nM.
The like results for `Cn1cc(-c2cn3nccc3c(N3CCC(C)(CNC(=O)c4nnn(C(C)(C)C)n4)CC3)n2)cn1` [Example 43, 2-(tert-butyl)-N-((4-methyl-1-(6-(1-methyl-1H-pyrazol-4-yl)pyrazolo[1,5-a]pyrazin-4-yl)piperidin-4-yl)methyl)-2H-tetrazole-5-carboxamide] were, in that order, 10 to 1000 nM and 1000 to 10000 nM.
For the compound `CN1CCN(c2cn3nccc3c(-c3ccc(CNC(=O)c4nc(C(C)(C)C)no4)c(F)c3)n2)CC1` [Example 118, 3-(tert-butyl)-N-(2-fluoro-4-(6-(4-methylpiperazin-1-yl)pyrazolo[1,5-a]pyrazin-4-yl)benzyl)-1,2,4-oxadiazole-5-carboxamide], the IC50 (usually the concentration that gives 50% inhibition) lay within 1 to 10 nM on BTK and 1000 to 10000 nM in test [1] (setting [2]).
On to `CC1CN(c2nc(-c3cnn(C)c3)cn3nccc23)CCC1CNC(=O)c1noc(C(C)(C)C)n1` (centres unmarked) [Example 144, 5-(tert-butyl)-N-((3-methyl-1-(6-(1-methyl-1H-pyrazol-4-yl)pyrazolo[1,5-a]pyrazin-4-yl)piperidin-4-yl)methyl)-1,2,4-oxadiazole-3-carboxamide], for which the IC50 on BTK is 1 to 10 nM; in test [1] (Homo sapiens), under 1000 nM.
Consider `Cc1cc(-c2nccn3nccc23)ccc1CNC(=O)c1noc(C(C)(C)C)n1` [Example 85, 5-(tert-butyl)-N-(2-methyl-4-(pyrazolo[1,5-a]pyrazin-4-yl)benzyl)-1,2,4-oxadiazole-3-carboxamide], for which the concentration for half-maximal inhibition (IC50) was in the range of 1 to 10 nM on BTK and 1000 to 10000 nM in test [1] (setting [2]).
The like results for `COCCOc1cn2nccc2c(-c2ccc(CNC(=O)c3noc(C(C)(C)C)n3)c(C)c2)n1` [Example 132, 5-(tert-butyl)-N-(4-(6-(2-methoxyethoxy)pyrazolo[1,5-a]pyrazin-4-yl)-2-methylbenzyl)-1,2,4-oxadiazole-3-carboxamide] were, in that order, 1 to 10 nM and 1000 to 10000 nM.
For `Cn1cc(-c2cn3nccc3c(-c3ccc(CNC(=O)c4coc(C(C)(C)C)n4)c(C(F)F)c3)n2)cn1` [Example 101, 2-(tert-butyl)-N-(2-(difluoromethyl)-4-(6-(1-methyl-1H-pyrazol-4-yl)pyrazolo[1,5-a]pyrazin-4-yl)benzyl)oxazole-4-carboxamide], in that order: 1 to 10 nM and 1000 to 10000 nM.
The like results for `CC(C)(C)n1nnc(C(=O)NCc2ccc(-c3nc(N4CCOCC4)cn4nccc34)cc2)n1` [Example 25, 2-(tert-butyl)-N-(4-(6-morpholinopyrazolo[1,5-a]pyrazin-4-yl)benzyl)-2H-tetrazole-5-carboxamide] were, in that order, 10 to 1000 nM and 1000 to 10000 nM.
Take `Cn1cc(-c2cn3nccc3c(-c3ccc(CNC(=O)c4coc(C(C)(C)C)n4)c(F)c3F)n2)cn1` [Example 90, 2-(tert-butyl)-N-(2,3-difluoro-4-(6-(1-methyl-1H-pyrazol-4-yl)pyrazolo[1,5-a]pyrazin-4-yl)benzyl)oxazole-4-carboxamide]: the values for the IC50 (on BTK; in test [1] (setting [2])) were under 1 nM and under 1000 nM, respectively.
For `CC1CN(c2nc(-c3cnn(C)c3)cn3nccc23)CCC1CNC(=O)c1noc(C2(C)CC2)n1` (centres unmarked) [Example 149, N-((3-methyl-1-(6-(1-methyl-1H-pyrazol-4-yl)pyrazolo[1,5-a]pyrazin-4-yl)piperidin-4-yl)methyl)-5-(1-methylcyclopropyl)-1,2,4-oxadiazole-3-carboxamide], in that order: 1 to 10 nM and 1000 to 10000 nM.
The like results for `Cn1cc(-c2cn3nccc3c(N3CCC(F)(CNC(=O)c4noc(C(C)(C)C)n4)CC3)n2)cn1` [Example 160, 5-(tert-butyl)-N-((4-fluoro-1-(6-(1-methyl-1H-pyrazol-4-yl)pyrazolo[1,5-a]pyrazin-4-yl)piperidin-4-yl)methyl)-1,2,4-oxadiazole-3-carboxamide] were, in that order, 1 to 10 nM and 1000 to 10000 nM.
On to `Cn1cc(-c2cn3nccc3c(-c3ccc(CNC(=O)c4nc(C(C)(C)C)no4)c(C(F)F)c3)n2)cn1` [Example 100, 3-(tert-butyl)-N-(2-(difluoromethyl)-4-(6-(1-methyl-1H-pyrazol-4-yl)pyrazolo[1,5-a]pyrazin-4-yl)benzyl)-1,2,4-oxadiazole-5-carboxamide], for which the IC50 is under 1 nM at BTK and under 1000 nM in test [1] (setting [2]).
The like results for `Cn1cc(-c2cn3nccc3c(-c3ccc(CNC(=O)c4cn(C(C)(C)C)nn4)cc3)n2)cn1` [Example 4, 1-(tert-butyl)-N-(4-(6-(1-methyl-1H-pyrazol-4-yl)pyrazolo[1,5-a]pyrazin-4-yl)benzyl)-1H-1,2,3-triazole-4-carboxamide] were, in that order, under 1 nM and under 1000 nM.
For `Cc1cc(-c2nc(N3CCOCC3)cn3nccc23)ccc1CNC(=O)c1cn(C(C)(C)C)nn1` [Example 120, 1-(tert-butyl)-N-(2-methyl-4-(6-morpholinopyrazolo[1,5-a]pyrazin-4-yl)benzyl)-1H-1,2,3-triazole-4-carboxamide], in that order: 1 to 10 nM and 1000 to 10000 nM.
For `Cn1cc(-c2cn3nccc3c(-c3ccc(CNC(=O)c4cn(C(C)(C)C)nn4)c(C(F)F)c3)n2)cn1` [Example 105, 1-(tert-butyl)-N-(2-(difluoromethyl)-4-(6-(1-methyl-1H-pyrazol-4-yl)pyrazolo[1,5-a]pyrazin-4-yl)benzyl)-1H-1,2,3-triazole-4-carboxamide], the concentration for half-maximal inhibition (IC50) on BTK is under 1 nM; in test [1] (setting [2]), under 1000 nM.
For `Cn1cc(-c2cn3nccc3c(-c3ccc(CNC(=O)c4cn(C(C)(C)C)nn4)cc3F)n2)cn1` [Example 112, 1-(tert-butyl)-N-(3-fluoro-4-(6-(1-methyl-1H-pyrazol-4-yl)pyrazolo[1,5-a]pyrazin-4-yl)benzyl)-1H-1,2,3-triazole-4-carboxamide], in that order: 1 to 10 nM and 1000 to 10000 nM.
The like results for `Cn1cc(-c2cn3nccc3c(-c3ccc(CNC(=O)c4nnn(C(C)(C)C)n4)cc3F)n2)cn1` [Example 114, 2-(tert-butyl)-N-(3-fluoro-4-(6-(1-methyl-1H-pyrazol-4-yl)pyrazolo[1,5-a]pyrazin-4-yl)benzyl)-2H-tetrazole-5-carboxamide] were, in that order, under 1 nM and under 1000 nM.
For `Cn1cc(-c2cn3nccc3c(N3CC[C@@H](CNC(=O)c4noc(C(C)(C)C)n4)[C@@H](F)C3)n2)cn1` (single isomer, unassigned) [Example 156], in that order: 1 to 10 nM and under 1000 nM.
With `Cn1cc(-c2cn3nccc3c(-c3ccc(CNC(=O)c4noc(C(C)(C)C)n4)c(C(F)F)c3)n2)cn1` [Example 86, 5-(tert-butyl)-N-(2-(difluoromethyl)-4-(6-(1-methyl-1H-pyrazol-4-yl)pyrazolo[1,5-a]pyrazin-4-yl)benzyl)-1,2,4-oxadiazole-3-carboxamide], the values for the half-inhibitory concentration (IC50) (on BTK; in test [1] (setting [2])) were under 1 nM and under 1000 nM, respectively.
For `Cn1cc(-c2cc(-c3ccc(CNC(=O)c4ccn(C(C)(C)C)n4)c(F)c3)c3ccnn3c2)cn1` [Example 70, 1-(tert-butyl)-N-(2-fluoro-4-(6-(1-methyl-1H-pyrazol-4-yl)pyrazolo[1,5-a]pyridin-4-yl)benzyl)-1H-pyrazole-3-carboxamide], in that order: 1 to 10 nM and 1000 to 10000 nM.
For `Cc1cc(-c2nc(-c3cnn(C)c3)cn3nccc23)ccc1CNC(=O)c1cn(C(C)(C)C)nn1` [Example 16, 1-(tert-butyl)-N-(2-methyl-4-(6-(1-methyl-1H-pyrazol-4-yl)pyrazolo[1,5-a]pyrazin-4-yl)benzyl)-1H-1,2,3-triazole-4-carboxamide], in that order: under 1 nM and under 1000 nM.
Take `Cn1cc(-c2cn3nccc3c(-c3ccc(CNC(=O)c4noc(C5(C)CC5)n4)c(F)c3)n2)cn1` [Example 8, N-(2-fluoro-4-(6-(1-methyl-1H-pyrazol-4-yl)pyrazolo[1,5-a]pyrazin-4-yl)benzyl)-5-(1-methylcyclopropyl)-1,2,4-oxadiazole-3-carboxamide]: the IC50 on BTK was under 1 nM; in test [1] (setting [2]), under 1000 nM.
